Measured values reported in patent US12606533B2, “3-phenylpropylamine derivative” (DAIICHI SANKYO COMPANY, LIMITED, priority 2023, dated 2026).
Read-outs that look alike come from different tables or passages of the source.

Tests used:
NCI-H295R cells = assay: Proliferation inhibitory action on NCI-H295R (CellTiter-Glo, 7 days); assay type: cell-based, human
Method: DMSO solutions of each compound were serially diluted with DMSO using a D300e Digital Dispenser (TECAN), and added to a 384-well plate (Thermo Fisher Scientific Inc.). NCI-H295R cells were seeded in a 384-well plate at 2×10^3 cells/40 μL/well and cultured for 7 days in a 37° C., 5% CO2 incubator. […] On the first day of culture (day 0) and the seventh day of culture (day 7), 10 μL/well of CellTiter-Glo (registered trademark) 2.0 Assay (Promega) was added, and the luminescence signal was detected using a multimode plate reader (EnVision, PerkinElmer). The cell proliferation rate was calculated from the luminescence amount on the day of compound addition (CO), the luminescence amount of the compound-free group after 7 days of culture (C7), and the luminescence amount of the compound-added group (T7), based on the following formula.

SF-1 = molecular target: T1, SF-1 (Homo sapiens, UniProt Q13285); assay: SF1 degradation induction in NCI-H295R SF-1-HiBiT cells (HiBiT DC50); assay type: cell-based; details: 24 hr, concentration that induces 50% degradation of SF-1
T1 construct: NCI-H295R SF-1-HiBiT cells with HiBiT tag knocked in at the endogenous SF1 locus; host or cells: NCI-H295R SF-1-HiBiT (knock-in at endogenous locus)
Method: NCI-H295R SF-1-HiBiT cells were seeded in a 384-well plate (Thermo Fisher Scientific Inc.) at 1×10^4 cells/50 μL/well and cultured at 37° C. in a 5% CO2 incubator for 24 hr. DMSO solutions of each compound were serially diluted with DMSO using a D300e Digital Dispenser (TECAN), added to a 384-well plate, and cultured in a 5% CO2 incubator at 37° C. for 24 hr. […] After completion of culture, the medium was discarded, and Nano-Glo (registered trade mark) HiBiT Lytic Detection System (Promega, Cat. No. N3040) was added at 20 μL/well and stirred with a plate mixer. Luminescence signals were then detected using a multimode plate reader (EnVision Xcite, PerkinElmer). The SF-1 protein degradation rate was calculated from the amount of luminescence (C) in the compound-free group and the amount of luminescence (T) in the compound-added group, based on the following formula.
The obtained data was analyzed using GraphPad Prism9 (GraphPad Software Inc.) or Genedata Screener (Genedata AG) to calculate the concentration that induces 50% degradation of SF-1 (DC50 value).

GI50 (NCI-H295R cells; Homo sapiens, NCI-H295R, 168 h) [nM]	DC50 (SF-1) [nM]	SMILES	GI50 (NCI-H295R cells) [nM]
123	14	COc1ccc([C@]2(CCN(Cc3ccc(C4=CC[C@H](CN5CCN(C(=O)c6ccc7c8c6O[C@@H]6COC[C@@H]6n8c(=O)n7C6CCC(=O)NC6=O)CC5)CC4)cc3)CC(C)(C)C(F)(F)F)CCOC(C)(C)C2)cc1 (relative stereo) [BV10, 3-[(6aS*,9aS*)-5-[(4-{[(4R)-4′-{[{2-[(4R)-4-(4-Methoxyphenyl)-2,2-dimethyltetrahydro-2H-pyran-4-yl]ethyl}(3,3,3-trifluoro-2,2-dimethylpropyl)amino]methyl}-2,3,4,5-tetrahydro[biphenyl]-4-yl]methyl}piperazin-1-yl)carbonyl]-1-oxo-6a, 7,9,9a-tetrahydrofuro[3,4-b]imidazo[1,5,4-de][1,4]benzoxazin-2(1H)-yl]piperidine-2,6-dione]	–
106	7.3	Cn1c(=O)n(C2CCC(=O)NC2=O)c2ccc(C(=O)N3CCN(CC4CC=C(c5ccc(CN(CC[C@@]6(c7ccc(OC(F)F)cc7)CCOC(C)(C)C6)CC(C)(C)C(F)(F)F)cc5)CC4)CC3)cc21 (stereo partly drawn) [AM10, 3-[5-({4-[(4′-{[(2-{(4R)-4-[4-(Difluoromethoxy)phenyl]-2,2-dimethyltetrahydro-2H-pyran-4-yl}ethyl) (3,3,3-trifluoro-2,2-dimethylpropyl)amino]methyl}-2,3,4,5-tetrahydro[biphenyl]-4-yl)methyl]piperazin-1-yl}carbonyl)-3-methyl-2-oxo-2,3-dihydro-1H-benzimidazol-1-yl]piperidine-2,6-dione]	–
92	12	COc1ccc([C@]2(CCN(Cc3ccc(OC4CC5(CCN(CC(=O)N6CCn7c(=O)n(C8CCC(=O)NC8=O)c8cccc6c87)CC5)C4)cc3)CC(C)(C)C(F)(F)F)CCOC(C)(C)C2)cc1 (stereo partly drawn) [AN5, 3-[6-{[2-(4-{[{2-[(4R)-4-(4-Methoxyphenyl)-2,2-dimethyltetrahydro-2H-pyran-4-yl]ethyl}(3,3,3-trifluoro-2,2-dimethylpropyl)amino]methyl}phenoxy)-7-azaspiro[3.5]nonan-7-yl]acetyl}-2-oxo-5,6-dihydro-4H-imidazo[1,5,4-de]quinoxalin-1(2H)-yl]piperidine-2,6-dione]	–

SMILES	GI50 (NCI-H295R cells; Homo sapiens, NCI-H295R, 168 h) [nM]	DC50 (SF-1) [nM]	GI50 (NCI-H295R cells) [nM]
COc1ccc([C@]2(CCN(Cc3ccc(C4=CC[C@H](C(=O)N5CCC(Nc6ccc7c8c6CCCn8c(=O)n7C6CCC(=O)NC6=O)CC5)CC4)c(F)c3)CC(C)(C)C(F)(F)F)CCOC(C)(C)C2)cc1 (single isomer, unassigned) [CG1, (3S) or (3R)-{7-[(1-{[(4R)-2′-Fluoro-4′-{[{2-[(4R)-4-(4-methoxyphenyl)-2,2-dimethyltetrahydro-2H-pyran-4-yl]ethyl}(3,3,3-trifluoro-2,2-dimethylpropyl)amino]methyl}-2,3,4,5-tetrahydro[biphenyl]-4-yl]carbonyl}piperidin-4-yl)amino]-2-oxo-5,6-dihydro-4H-imidazo[4,5,1-ij]quinolin-1(2H)-yl}piperidine-2,6-dione]	–	1.8	18
COc1ccc([C@]2(CCN(Cc3ccc(C4=CC[C@H](C(=O)N5CCC(Nc6ccc7c8c6CCCn8c(=O)n7C6CCC(=O)NC6=O)CC5)CC4)c(F)c3)CC(C)(C)C(F)(F)F)CCOC(C)(C)C2)cc1 (single isomer, unassigned) [CH1, (3S) or (3R)-{7-[(1-{[(4R)-2′-Fluoro-4′-{[{2-[(4R)-4-(4-methoxyphenyl)-2,2-dimethyltetrahydro-2H-pyran-4-yl]ethyl}(3,3,3-trifluoro-2,2-dimethylpropyl)amino]methyl}-2,3,4,5-tetrahydro[biphenyl]-4-yl]carbonyl}piperidin-4-yl)amino]-2-oxo-5,6-dihydro-4H-imidazo[4,5,1-ij]quinolin-1(2H)-yl}piperidine-2,6-dione]	–	2.8	25
